The source of these data is patent US20160304461A1, “QUINOLONE COMPOUND AND PHARMACEUTICAL COMPOSITION” (OTSUKA PHARMACEUTICAL CO., LTD., priority 2007, published 2016).

Series [1] concerns human neuroblastoma cell lines SH-SY5Y. The series can be described thus: Improvement of mitochondrial dysfunction in MPP+-treated SH-SY5Y cells (Alamar Blue mitochondrial oxidation reduction activity). The class given is cell-based. The note with it: SH-SY5Y cells in 1.5 mM MPP+ medium, relative to cells in DMSO alone = 100%, read-out: Fluorescence Intensity (%); for activity at 0.01 µg/mL: test compound 0.01 μg/ml; for activity at 0.03 µg/mL: test compound 0.03 μg/ml; for activity at 0.1 µg/mL: test compound 0.1 μg/ml; for activity at 0.3 µg/mL: test compound 0.3 μg/ml; for activity at 1 µg/mL: test compound 1 μg/ml. On the procedure:
Evaluation of Improvement of Mitochondrial Dysfunction using Human Neuroblastoma Cell Lines SH-SY5Y Treated with 1-methyl-4-phenylpyridinium (MPP^+)
In human neuroblastoma cell lines SH-SY5Y in which mitochondrial activity was injured by MPP^+ treatment (Bollimuntha S. et al., J Biol Chem, 280, 2132-2140 (2005) and Shang T. et al., J Biol Chem, 280, 34644-34653 (2005)), improvement of the mitochondrial dysfunction was evaluated on the basis of the measurement value of the mitochondrial oxidation reduction activity using Alamar Blue fluorescent dye after the compound addition (Nakai M. et. al, Exp Neurol, 179, 103-110 (2003)).
The human neuroblastoma cell lines SH-SY5Y were cultured in Dulbecco's Modified Eagle's Medium containing 10% fetal bovine serum (DMEM containing 50 units/ml penicillin and 50 μg/ml streptomycin as antibiotics) at 37° C. in the presence of 5% carbon dioxide. Cells were scattered on a poly-D-lysine-coated 96-well black plate at a concentration of 3-6×10^4 cells/cm^2 (medium amount: 100 μl/well), and cultured in the above medium for two days. Further, the medium was changed to a DMEM containing a 1% N2 supplement (N2-DMEM) or to a medium (100 μl/well) in which 1.5 mM MPP^+ was dissolved. The cells were cultured therein for 39 to 48 hours, and then subjected to a mitochondrial oxidation reduction activity measurement system. A sample compound that had been previously dissolved in dimethyl sulfoxide (DMSO) was diluted with N2-DMEM, and added in a volume of 10 μl/well 24 hours before the activity measurement (final compound concentration: 0.01 to 1 μg/ml).
After removal of the medium by suction, a balanced salt solution containing 10% Alamar Blue (154 mM sodium chloride, 5.6 mM potassium chloride, 2.3 mM calcium chloride, 1.0 mM magnesium chloride, 3.6 mM sodium bicarbonate, 5 mM glucose, 5 mM HEPES, pH 7.2) was added in a volume of 100 μl/well, and reacted in an incubator at 37° C. for 1 hour. The fluorescent intensity was detected using a fluorescence detector (a product of Hamamatsu Photonics K.K., excitation wavelength 530 nm, measurement wavelength 580 nm) to thereby measure the mitochondrial oxidation reduction activity.
The fluorescent intensity of the well of the cells cultured in a medium containing MPP^+ and in each of the sample compounds was relatively evaluated based on a 100% fluorescent intensity of the well of the cells cultured in a medium containing DMSO alone (final concentration: 0.1%).
In general terms: Resazurin is reduced to fluorescent resorufin, in cell work by metabolically active cells.

For orientation: melting point means the temperature, or range, at which the solid turns liquid. Take `COc1ccc(-c2c[nH]c3c(OCC4CC4)ccc(F)c3c2=O)cc1` [Example 24, 8-Cyclopropylmethoxy-5-fluoro-3-(4-methoxyphenyl)-1H-quinolin-4-one]: the melting point lay within 190 to 191 °C. In addition, in series [1], the activity at 0.01 µg/mL came out at 60%, the activity at 0.03 µg/mL was 70%, the activity at 0.1 µg/mL was found to be 82% and the activity at 0.3 µg/mL was found to be 78%. Besides, in series [1], the activity at 1 µg/mL was 84%.
The compound `CCCOc1ccc(F)c2c(=O)c(-c3ccc(OC)cc3)cn(CC3CC3)c12` [Example 94, 1-Cyclopropylmethyl-5-fluoro-3-(4-methoxyphenyl)-8-propoxy-1H-quinolin-4-one] displayed a melting point of 60 to 62 °C. In series [1], the activity at 0.01 µg/mL was found to be 56%, the activity at 0.03 µg/mL is 67%, the activity at 0.1 µg/mL was determined as 69% and the activity at 0.3 µg/mL was 59%. In series [1], the activity at 1 µg/mL was found to be 41%.
Consider `CCCOc1ccc(F)c2c(=O)c(-c3ccoc3)c[nH]c12` [Example 1, 5-Fluoro-3-furan-3-yl-8-propoxy-1H-quinolin-4-one], for which the melting point was 214 to 215 °C. Moreover, in series [1], the activity at 0.01 µg/mL came to 51%, the activity at 0.03 µg/mL turned out to be 62%, the activity at 0.1 µg/mL amounted to 70% and the activity at 0.3 µg/mL was 66%. Besides, the activity at 1 µg/mL in series [1] stood at 64%.
With `CCCOc1ccc(F)c2c(=O)c(-c3ccc(OC)c(OC)c3)c[nH]c12` [Example 62, 3-(3,4-Dimethoxyphenyl)-5-fluoro-8-propoxy-1H-quinolin-4-one], the melting point was in the range of 217 to 218 °C. In series [1], the activity at 0.01 µg/mL was 66%, the activity at 0.03 µg/mL stood at 62%, the activity at 0.1 µg/mL was determined as 79% and the activity at 0.3 µg/mL is 84%. Also, the activity at 1 µg/mL in series [1] came to 80%.
For the compound `COc1ccc(-c2c(C)[nH]c3c(OCC4CC4)ccc(F)c3c2=O)cc1` [Example 47, 8-Cyclopropylmethoxy-5-fluoro-3-(4-methoxyphenyl)-2-methyl-1H-quinolin-4-one], the melting point lay within 167 to 169 °C. Besides, in series [1], the activity at 0.01 µg/mL was determined as 51%, the activity at 0.03 µg/mL was found to be 58%, the activity at 0.1 µg/mL stood at 71% and the activity at 0.3 µg/mL turned out to be 73%. Further, the activity at 1 µg/mL in series [1] worked out at 82%.
Take `CCCSc1ccc(F)c2c(=O)c(-c3ccc(OC)cc3)c[nH]c12` [Example 40, 5-Fluoro-3-(4-methoxyphenyl)-8-propylsulfanyl-1H-quinolin-4-one]: the melting point is 173 to 174 °C. Moreover, in series [1], the activity at 0.01 µg/mL is 60%, the activity at 0.03 µg/mL was 64%, the activity at 0.1 µg/mL stood at 76% and the activity at 0.3 µg/mL is 70%. In addition, the activity at 1 µg/mL in series [1] worked out at 72%.
As for `CCn1cc(-c2ccc(OC)cc2)c(=O)c2c(F)ccc(OCC3CC3)c21` [Example 66, 8-Cyclopropylmethoxy-1-ethyl-5-fluoro-3-(4-methoxyphenyl)-1H-quinolin-4-one], the melting point was 150 to 152 °C. Further, in series [1], the activity at 0.01 µg/mL was 66%, the activity at 0.03 µg/mL was determined as 72%, the activity at 0.1 µg/mL was found to be 83% and the activity at 0.3 µg/mL came to 77%. For the same compound, the activity at 1 µg/mL in series [1] turned out to be 60%.
In the case of `COc1ccc(-c2c[nH]c3c(OC4CCCC4)ccc(F)c3c2=O)cc1` [Example 37, 8-Cyclopentyloxy-5-fluoro-3-(4-methoxyphenyl)-1H-quinolin-4-one], the melting point was in the range of 213 to 215 °C. For the same compound, in series [1], the activity at 0.01 µg/mL turned out to be 64%, the activity at 0.03 µg/mL was 73%, the activity at 0.1 µg/mL was determined as 78% and the activity at 0.3 µg/mL turned out to be 70%. For the same compound, the activity at 1 µg/mL in series [1] worked out at 61%.
For the compound `COc1ccc(-c2c[nH]c3c(N(C)C4CCCCC4)ccc(F)c3c2=O)cc1` [Example 25, 8-(N-Cyclohexyl-N-methylamino)-5-fluoro-3-(4-methoxyphenyl)-1H-quinolin-4-one], the melting point was 224 to 225 °C. Moreover, in series [1], the activity at 0.01 µg/mL worked out at 46%, the activity at 0.03 µg/mL worked out at 56%, the activity at 0.1 µg/mL worked out at 66% and the activity at 0.3 µg/mL was determined as 50%. For the same compound, in series [1], the activity at 1 µg/mL is 24%.
Regarding `COc1ccc(-c2c[nH]c3c(-c4ccsc4)ccc(F)c3c2=O)cc1` [Example 87, 5-Fluoro-3-(4-methoxyphenyl)-8-thiophen-3-yl-1H-quinolin-4-one], the melting point was in the range of 183 to 184 °C. In series [1], the activity at 0.01 µg/mL was 63%, the activity at 0.03 µg/mL turned out to be 66%, the activity at 0.1 µg/mL stood at 79% and the activity at 0.3 µg/mL was 63%. For the same compound, the activity at 1 µg/mL in series [1] amounted to 51%.
In turn, `COc1ccc(-c2c[nH]c3c(OCCCC(F)(F)F)ccc(F)c3c2=O)cc1` [Example 31, 5-Fluoro-3-(4-methoxyphenyl)-8-(4,4,4-trifluorobutoxy)-1H-quinolin-4-one] yielded a melting point of 171 to 172 °C. In series [1], the activity at 0.01 µg/mL came to 45%, the activity at 0.03 µg/mL stood at 45%, the activity at 0.1 µg/mL is 57% and the activity at 0.3 µg/mL was found to be 59%. Moreover, the activity at 1 µg/mL in series [1] was found to be 48%.
The compound `CCCOc1ccc(F)c2c(=O)c(-c3ccc(OC)cc3)cn(CCOCC)c12` [Example 93, 1-(2-Ethoxyethyl)-5-fluoro-3-(4-methoxyphenyl)-8-propoxy-1H-quinolin-4-one] gave a melting point of 108 to 109 °C. Also, in series [1], the activity at 0.01 µg/mL stood at 66%, the activity at 0.03 µg/mL came out at 79%, the activity at 0.1 µg/mL was 86% and the activity at 0.3 µg/mL worked out at 80%. Also, the activity at 1 µg/mL in series [1] was 69%.
As to `CCCOc1ccc(F)c2c(=O)c(-c3ccc(OC)c(Cl)c3)c[nH]c12` [Example 4, 3-(3-Chloro-4-methoxyphenyl)-5-fluoro-8-propoxy-1H-quinolin-4-one], the melting point lay within 217 to 218 °C. In series [1], the activity at 0.01 µg/mL is 56%, the activity at 0.03 µg/mL worked out at 61%, the activity at 0.1 µg/mL came to 70% and the activity at 0.3 µg/mL is 72%. The activity at 1 µg/mL in series [1] turned out to be 59%.
For the compound `CCCOc1ccc(F)c2c(=O)c(-c3ccc(CC)cc3)c[nH]c12` [Example 53, 3-(4-Ethylphenyl)-5-fluoro-8-propoxy-1H-quinolin-4-one], the melting point is 153 to 154 °C. Also, in series [1], the activity at 0.01 µg/mL was found to be 53%, the activity at 0.03 µg/mL came to 56%, the activity at 0.1 µg/mL was 67% and the activity at 0.3 µg/mL was 60%. For the same compound, in series [1], the activity at 1 µg/mL came out at 67%.
Turning to `CCCOc1ccc(F)c2c(=O)c(-c3ccc(OC)nc3OC)c[nH]c12` [Example 64, 3-(2,6-Dimethoxypyridin-3-yl)-5-fluoro-8-propoxy-1H-quinolin-4-one], the melting point lay in the range of 198 to 199 °C. Moreover, in series [1], the activity at 0.01 µg/mL came out at 55%, the activity at 0.03 µg/mL was 65%, the activity at 0.1 µg/mL is 74% and the activity at 0.3 µg/mL turned out to be 72%. The activity at 1 µg/mL in series [1] is 77%.
The compound `CCCOc1ccc(F)c2c(=O)c(-c3ccc(SC)cc3)c[nH]c12` [Example 38, 5-Fluoro-3-(4-methylsulfanylphenyl)-8-propoxy-1H-quinolin-4-one] came in with a melting point of 198 to 199 °C. For the same compound, in series [1], the activity at 0.01 µg/mL was found to be 66%, the activity at 0.03 µg/mL was found to be 67%, the activity at 0.1 µg/mL was 86% and the activity at 0.3 µg/mL is 81%. The activity at 1 µg/mL in series [1] turned out to be 78%.
`CCCOc1ccc(F)c2c(=O)c(-c3ccsc3CO)c[nH]c12` [Example 100, 5-Fluoro-3-(2-hydroxymethylthiophen-3-yl)-8-propoxy-1H-quinolin-4-one] came in with a melting point of 181 to 184 °C. For the same compound, in series [1], the activity at 0.01 µg/mL is 56%, the activity at 0.03 µg/mL turned out to be 56%, the activity at 0.1 µg/mL amounted to 71% and the activity at 0.3 µg/mL was found to be 73%. Also, the activity at 1 µg/mL in series [1] came out at 84%.
